Results on 47 compounds are retold here after patent US9751851B2, “Molecules and compositions that inhibit gram negative bacteria and their uses” (THE TRUSTEES OF PRINCETON UNIVERSITY, priority 2013, dated 2017).

The subject of the assay is wild-type P. aeruginosa PA14. Nature of the assay: microbe, parasite or virus in culture. Type of assay: cell-based. The conditions noted are these: for inhibition at 100 µM / Efficacy (%): reduction of pyocyanin vs WT P. aeruginosa PA14: 0% = WT level, 100% = background medium; for IC50: read-out: IC50 for inhibition of pyocyanin production; for inhibition of pyocyanin production (in words): wild-type P. aeruginosa PA14, end point assays at 100 μM. As for the experimental part:
Methods. The oxidized form of pyocyanin imparts a green color to P. aeruginosa cultures, making the production of pyocyanin convenient to monitor by UV/Vis absorbance. Overnight P. aeruginosa cultures were subcultured into 5 mL fresh medium at 1:1000 dilution. Synthetic compounds were assayed at 100 μM for end point assays and at concentrations ranging from 200 nM to 200 μM for titrations following 17 hr of aerobic growth with shaking at 37° C. Cells were separated from culture fluids via centrifugation at 13,000 rpm for 15 min. Culture fluids were passed through 0.22 μm syringe driven filters (Millipore). Cell-free culture fluids were analyzed for pyocyanin using wavelength scans on a Beckman Coulter DU-800 spectrophotometer from 200 nm to 800 nm 695 nm was chosen for graphical representation. Titration data were fit with a variable-slope sigmoidal dose-response curve using GraphPad Prism to determine the IC50 values.
The compounds of the first library were assayed in wild-type (WT) P. aeruginosa PA14. Pyocyanin was used as a read-out for quorum sensing activity based on its absorbance at 695 nm. The efficacy of the compounds at reducing pyocyanin levels was calculated with respect to WT levels of pyocyanin, where WT levels of pyocyanin would lead to a 0% efficacy, and an absorbance equal to the background medium would lead to a 100% efficacy. Agonists that increase pyocyanin production have negative efficacy values.

The mark [1] stands for this setting: Pseudomonas aeruginosa, PA14, 17 h, read-out: Efficacy (%), Table 1, negative = agonist.
The mark [2] stands for this setting: Pseudomonas aeruginosa, PA14, 17 h, read-out: Efficacy (%), Table 2, negative = agonist.
[3] abbreviates: Pseudomonas aeruginosa, PA14, 17 h.
The mark [4] stands for this setting: WT P. aeruginosa PA14, 17 hr growth, titration.
[5] abbreviates: Pseudomonas aeruginosa, PA14, 17 h, read-out: Efficacy (%), Table 4.
Setting [6] is: Pseudomonas aeruginosa, PA14, 17 h, read-out: Efficacy (%), Table 3.

Read-outs that look alike come from different tables or passages of the source.

For the compound `CCCCCCCCCCCC(=O)Nc1ccncn1` [S9, C12-4-aminopyrimidine], the inhibition at 100 µM under setting [1] amounted to 55 ± 8%.

In the case of `CCCCCCCCCCCC(=O)N1CCN(c2ccncc2)CC1` [S24, C12-4-(piperazine)pyridine], the inhibition at 100 µM under setting [2] was -42 ± 2%.

On to `CCCCCCCCCC(=O)CC(=O)Nc1cnccn1` [S4, 3OC12-2-aminopyrazine], for which the inhibition at 100 µM under setting [1] is 21 ± 13%.

For `CCCCCCCCCCCCNC(=O)Cc1c[nH]c2ccccc12` [S34, C12-3-(methylamido)indole], under setting [2], the inhibition at 100 µM amounted to 0.6 ± 4%.

With `CCCCCCCCCC(=O)CC(=O)Nc1ncccn1` [S5, 3OC12-2-aminopyrimidine], the inhibition at 100 µM under setting [1] was -0.51 ± 4%.

Turning to `CCCCCCCCCC(=O)CC(=O)Nc1ccncc1` [compound 14, 3OC12-4-aminopyridine], the inhibition at 100 µM under setting [1] came to 63 ± 2%. Also, under setting [3], the IC50 was found to be 0.16 µM.

As for `COc1cc(NC(=O)COc2cccc(Br)c2)ccn1` [S50, 4-amino-2-methoxypyridine-C8-3-bromophenoxyhybrid], the “Efficacy (%)” value is on record as 60% (Table 3, listed as Table 3 entry 10) and 60 ± 2% (Table 3, listed as drawing 68).

For `CCCCCCCCCCCC(=O)Nc1ccnc(C)c1` [S12, C12-4-amino-2-methylpyridine], under setting [2], the inhibition at 100 µM is -19 ± 3%.

As to `CCCCCCOC(=O)C1COc2ccccc21` (stereo not drawn) [S28, C6-dihydrobenzofuran ester], the inhibition at 100 µM under setting [2] stood at 1.5 ± 8%.

`O=C(CCCCCCCCCCN=C=S)CC(=O)NC1CCOC1=O` (stereo not drawn) [itc-13, reference compound]: the IC50 under setting [4] was determined as 56 µM.

Take `O=C(COc1ccc(F)cc1)Nc1ccnc(C(F)(F)F)c1` [S68, 4-amino-2-trifluoromethylpyridine-C6-4-fluorophenoxyhybrid]: under setting [5], the inhibition at 100 µM was 54%. In addition, the “Efficacy (%)” value (Table 4) is 54 ± 4%.

With `CCCCCCCCCCCC(=O)Nc1ccc2oc3c(c2c1)CCCC3` [S35, C12-2-amino-tetrahydrodibenzofuran], the inhibition at 100 µM under setting [2] worked out at 6.1 ± 4%.

`CCCCCCCCCCCC(=O)Nc1ccc2c(c1)c1ccccc1n2CC` [S30, C12-3-amino-1-ethylcarbazole]: under setting [2], the inhibition at 100 µM is -1 ± 3%.

With `CCCCCCCCCNC(=O)CC(=O)c1ccccc1` [V-06-018, reference compound], the IC50 under setting [3] stood at 18 µM.

Turning to `O=C(COc1cccc(Br)c1)Nc1ccnc(F)c1` [S41, 4-amino-2-fluoropyridine-C6-3-bromophenoxyhybrid], the inhibition at 100 µM under setting [6] amounted to 31 ± 6%.

Take `COc1cc(NC(=O)COc2cccc(Br)c2)ccn1` [S42, 4-amino-2-methoxypyridine-C4-3-bromophenoxyhybrid]: the “Efficacy (%)” value (Table 3, listed as drawing 63) came out at 20 ± 1%.

On to `O=C(COc1cccc(C(F)(F)F)c1)Nc1ccnc(C(F)(F)F)c1` [S75, 4-amino-2-trifluoromethylpyridine-C6-3-trifluoromethylphenoxyhybrid], for which, under setting [5], the inhibition at 100 µM amounted to 59 ± 3%.

In the case of `O=C(CCCOc1cccc(Br)c1)N[C@@H]1CCSC1=O` [(R)-mBTL], the half-inhibitory concentration (IC50) under setting [4] came out at 100 µM.

On to `CCCCCCCCCCCC(=O)Nc1ccncc1C(F)(F)F` [S14, C12-4-amino-3-trifluoromethylpyridine], for which, under setting [2], the inhibition at 100 µM is -17 ± 2%.

As to `O=C(COc1ccccc1O)Nc1ccnc(C(F)(F)F)c1` [S78, 4-amino-2-trifluoromethylpyridine-C6-2-hydroxyphenoxyhybrid], the inhibition at 100 µM under setting [5] was 95%. For the same compound, under “Table 4”, the “Efficacy (%)” value is given as 95 ± 4%.

Take `O=C(CSc1cccc(F)c1)Nc1ccnc(C(F)(F)F)c1` [S79, 4-amino-2-trifluoromethylpyridine-C6-3-fluoroarylsulfide hybrid]: under setting [5], the inhibition at 100 µM stood at 94%. For the same compound, where the note is “Table 4”, the “Efficacy (%)” value was determined as 94 ± 4%.

With `COc1cc(NC(=O)CC(=O)COc2cccc(Br)c2)ccn1` [S46, 4-amino-2-methoxypyridine-3OC6-3-bromophenoxyhybrid], under setting [6], the inhibition at 100 µM came to 40%. In addition, where the note is “Table 3”, the “Efficacy (%)” value was found to be 40 ± 6%.

`CCCCCCCCCCCC(=O)Nc1cnccn1` [S10, C12-2-aminopyrazine]: the inhibition at 100 µM under setting [1] was -38 ± 3%.

`O=C(COc1ccccc1F)Nc1ccnc(C(F)(F)F)c1` [S69, 4-amino-2-trifluoromethylpyridine-C6-2-fluorophenoxyhybrid]: the inhibition at 100 µM under setting [5] was determined as 78 ± 3%.

As to `O=C(CCCOc1cccc(Br)c1)N[C@H]1CCOC1=O` [mBL], the “inhibition of pyocyanin production (in words)” value (“inhibition … (in words)” for short) is on record as “most effective inhibitor of pyocyanin production”.

On to `CCCCCCCCCCCC(=O)Nc1c(F)c(F)nc(F)c1F` [S19, C12-4-amino-2,3,5,6-tetrafluoropyridine], for which, under setting [2], the inhibition at 100 µM was -12 ± 3%.

In the case of `CCCCCCCCCC(=O)CC(=O)Nc1ccc2c(c1)c1ccccc1n2CC` [S31, 3OC12-3-amino-1-ethylcarbazole], under setting [2], the inhibition at 100 µM was 9.3 ± 4%.

For the compound `CCCCCCCCCCCC(=O)Nc1cc(C)nc2ccccc12` [S13, C12-4-amino-2-methylquinoline], the inhibition at 100 µM under setting [2] was -24 ± 2%.

In the case of `O=C(COc1cccc(Cl)c1)Nc1ccnc(C(F)(F)F)c1` [S67, 4-amino-2-trifluoromethylpyridine-C6-3-chlorophenoxyhybrid], the inhibition at 100 µM under setting [5] stood at 101%. For the same compound, for the setting “Table 4”, the “Efficacy (%)” value is 101 ± 3%.

Turning to `CCCCCCCCCCCCNC(=O)c1c[nH]c2ccccc12` [S33, C12-3-amidoindole], the inhibition at 100 µM under setting [2] amounted to 4.4 ± 3%.

With `CCCCCCCCCCCC(=O)OCc1ccncc1` [S23, C12-4-(hydroxymethyl)pyridine], the inhibition at 100 µM under setting [2] was -15 ± 4%.

As to `O=C(CCc1ccc(Br)cc1)N[C@H]1CCOC1=O` [B7, reference compound], the “inhibition … (in words)” value is “limited or no inhibition”.

On to `CCCCCCCCCCCC(=O)Nc1ccnc(OC)c1` [S15, C12-4-amino-2-methoxypyridine], for which, under setting [2], the inhibition at 100 µM was -5.1 ± 1%.

`CCCCCCCCCCCC(=O)Nc1ccnc(Br)c1` [S17, C12-4-amino-2-bromopyridine]: the inhibition at 100 µM under setting [2] is 34 ± 5%.

In the case of `O=C(COc1cccc([N+](=O)[O-])c1)Nc1ccnc(C(F)(F)F)c1` [S73, 4-amino-2-trifluoromethylpyridine-C6-3-nitrophenoxyhybrid], under setting [5], the inhibition at 100 µM worked out at 39 ± 36%.

Consider `CCCCCCCCCCCC(=O)Nc1cccnc1` [S7, C12-3-aminopyridine], for which the inhibition at 100 µM under setting [1] turned out to be 34 ± 3%.

Take `Cc1cccc(OCC(=O)Nc2ccnc(C(F)(F)F)c2)c1` [S76, 4-amino-2-trifluoromethylpyridine-C6-3-methylphenoxyhybrid]: the inhibition at 100 µM under setting [5] came to 81%. For the same compound, where the note is “Table 4”, the “Efficacy (%)” value is recorded as 81 ± 4%.

For the compound `O=C(COc1cccc(Br)c1)Nc1ccncc1` [S39, 4-aminopyridine-C6-3-bromophenoxyhybrid], the “Efficacy (%)” value (Table 3, listed as drawing 60) stood at 53 ± 1%.

As for `CCCCCCCCCC(=O)CC(=O)Nc1ccnc(OC)c1` [S16, 3OC12-4-amino-2-methoxypyridine], the inhibition at 100 µM under setting [2] came out at 24 ± 1%.

With `O=C(COc1cccc(Br)c1)Nc1ccnc(F)c1` [S40, 4-amino-2-fluoropyridine-C4-3-bromophenoxyhybrid], the “Efficacy (%)” value (Table 3) is 32 ± 4%.

On to `N#Cc1cccc(OCC(=O)Nc2ccnc(C(F)(F)F)c2)c1` [S74, 4-amino-2-trifluoromethylpyridine-C6-3-cyanophenoxyhybrid], for which the inhibition at 100 µM under setting [5] stood at 0.48 ± 7%.

Take `O=C(COc1ccccc1Br)Nc1ccnc(C(F)(F)F)c1` [S65, 4-amino-2-trifluoromethylpyridine-C6-2-bromophenoxyhybrid]: the inhibition at 100 µM under setting [5] stood at 94%. Further, the “Efficacy (%)” value (Table 4) stood at 94 ± 4%.

For the compound `O=C(CCCCOc1cccc(Br)c1)NC1CCSC1=O` (stereo not drawn) [5C-mBTL], the “inhibition … (in words)” value is listed as “most effective inhibitor of pyocyanin production”.

As for `CCCCCCCCCCCCNC(=O)c1cc2ccccc2n1C` [S32, C12-2-amido-1-methylindole], the inhibition at 100 µM under setting [2] was -9.2 ± 4%.

Turning to `O=C(COc1cccc(Br)c1)Nc1cccc(C(F)(F)F)c1` [S59, 1-amino-3-trifluoromethyl-C6-3-bromophenoxyhybrid], the inhibition at 100 µM under setting [6] was found to be 62%. Also, the “Efficacy (%)” value (Table 3) is 62 ± 6%.

For the compound `CCCCCCCCCCCC(=O)Nc1ccccn1` [S6, C12-2-aminopyridine], the inhibition at 100 µM under setting [1] was found to be 55 ± 3%.

Turning to `O=C(COc1cccc(Br)c1)Nc1ccncc1` [S37, 4-aminopyridine-C4-3-bromophenoxyhybrid], the “Efficacy (%)” value (Table 3, listed as drawing 59) came to 21 ± 5%.
